Values quoted from earlier work, collected in patent US20230165838A1, “TREATMENT FOR ACUTE RESPIRATORY DISTRESS SYNDROME” (DIMERIX BIOSCIENCE LTD., priority 2020, published 2023).

Test system: monocytes
Details: MCP-1 induced; mechanism seems to require GPI-anchored proteins such as CD55, CD59 and CD16 (Yokochi, S. 2001)

## O=C(O)C[CH2][Ge](=[O])[O][Ge](=[O])[CH2]CC(=O)O [Propagermanium, 3-[(2-Carboxyethyl-oxogermyl)oxy-oxogermyl]propanoic acid]
  in vitro chemotactic migration of monocytes by MCP-1: specifically inhibit
